Experimental data reported in patent US20110251233A1, “FORMULATION FOR THE BUCCAL TRANSMUCOSAL ADMINISTRATION OF SETRONS” (priority 2008, published 2011).

Assay: dissolution of ondansetron in hydroalcoholic solution
Assay type: physicochemical
Details: approximately 50° ethanol
Protocol: By way of example, the coefficient of dissolution of ondansetron in ethanol allows complete dissolution of said active ingredient at the rate of 2 milligrams (mg) of ondansetron per 0.75 milliliters (mL) of approximately 50° ethanol. This coefficient may be modulated as a function of the degree of alcohol and the water/ethanol ratio used.

coefficient of dissolution (complete dissolution): 2 mg per 0.75 mL
Structure (SMILES): Cc1nccn1CC1CCc2c(c3ccccc3n2C)C1=O (stereo not shown) [ondansetron]
